Among the data in US9018208B2, “Heterocycles as potassium channel modulators” (Icagen Inc., priority 2007, dated 2015) are EC50 values, retold here.

The first test deals with SH-SY5Y M-currents (KCNQ2, KCNQ3 and KCNQ5). The test is described as follows: SH-SY5Y native cell line FLIPR assay (voltage-sensitive dye DiBAC). It is filed as cell-based, mouse neuroblastoma, rat glioma hybrid cell line. To be noted: FLIPR assay, SH-SY5Y native cell line; Table 1; read-out: SH-SY5Y EC50. The procedure, abridged:
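Response is peak DiBAC fluorescence change, normalised to the maximum from a positive control agent, sampled every 30 s over 25 min. Before compound addition, SH-SY5Y cells differentiated with PGE1 plus isomethylbutylxanthine were dye-loaded for 1 h in EBSS with […] DiBAC.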
Take `CC(C)(C)Cc1c(NC(=O)Cc2ccc(Oc3ccccc3)cc2)nc2ccc(C(F)(F)F)cn12` [Compound 22, N-(3-neopentyl-6-(trifluoromethyl)imidazo[1,2-a]pyridin-2-yl)-2-(4-phenoxyphenyl)acetamide]: the EC50 is less than 0.5 µM. On the same count and under the same terms, the result for `CC(C)(C)Cc1c(NC(=O)C2CCCCC2)nc2ccc(C(F)(F)F)cn12` [Compound 59, N-(3-neopentyl-6-(trifluoromethyl)imidazo[1,2-a]pyridin-2-yl)cyclohexanecarboxamide] reads less than 0.5 µM; that for `CC(CC(=O)Nc1nc2ccccn2c1CC(C)(C)C)C(F)(F)F` (stereo not drawn) [Compound 86, 4,4,4-trifluoro-3-methyl-N-(3-neopentylimidazo[1,2-a]pyridin-2-yl)butanamide], 0.5 to 3 µM. Consider `Cc1cccc2nc(NC(=O)CC(C)(C)C)cn12` [Compound 9, 3,3-dimethyl-N-(5-methylimidazo[1,2-a]pyridin-2-yl)butanamide], for which the EC50 fell in the range of 3 to 10 µM.

Still in this test, the particulars now being: FLIPR assay, SH-SY5Y native cell line; Table 2; read-out: SH-SY5Y EC50.
For `O=C(CC1CCCC1)Nc1nc2ccccn2c1-c1ccc(OC(F)(F)F)cc1` [Compound 226, 2-cyclopentyl-N-(3-(4-(trifluoromethoxy)phenyl)imidazo[1,2-a]pyridin-2-yl)acetamide], the EC50 was less than 0.5 µM. On to `O=C(CC1CCCC1)Nc1nc2ccc(F)cn2c1-c1cccc(C(F)(F)F)c1` [Compound 268, 2-cyclopentyl-N-(6-fluoro-3-(3-(trifluoromethyl)phenyl)imidazo[1,2-a]pyridin-2-yl)acetamide], for which the EC50 was less than 0.5 µM. Still for that read-out and setting: the value for `O=C(CC1CCCC1)Nc1nc2ccc(F)cn2c1-c1cccc(Cl)c1` [Compound 302, N-(3-(3-chlorophenyl)-6-fluoroimidazo[1,2-a]pyridin-2-yl)-2-cyclopentylacetamide] was less than 0.5 µM. The same measure, in the same setting: the result for `CC(C)(C)CC(=O)Nc1nc2ccc(F)cn2c1-c1ccc(F)cc1F` [Compound 116, N-(3-(2,4-difluorophenyl)-6-fluoroimidazo[1,2-a]pyridin-2-yl)-3,3-dimethylbutanamide] reads 0.5 to 3 µM; that for `O=C(CCC(F)(F)F)Nc1nc2ccc(F)cn2c1-c1ccc(F)cc1` [Compound 108, 4,4,4-trifluoro-N-(6-fluoro-3-(4-fluorophenyl)imidazo[1,2-a]pyridin-2-yl)butanamide], 0.5 to 3 µM; that for `O=C(Nc1nc2ccc(F)cn2c1-c1ccccc1)C(F)(F)F` [Compound 91, 2,2,2-trifluoro-N-(6-fluoro-3-phenylimidazo[1,2-a]pyridin-2-yl)acetamide], 3 to 10 µM.

For the compound `O=C(Cc1ccccc1)Nc1nc2ccc(F)cn2c1-c1cc(F)cc(F)c1` [Compound 228, N-(3-(3,5-difluorophenyl)-6-fluoroimidazo[1,2-a]pyridin-2-yl)-2-phenylacetamide], the EC50 is less than 0.5 µM. In the case of `O=C(CCC(F)(F)F)Nc1nc2ccc(F)cn2c1-c1ccc(OC(F)(F)F)cc1` [Compound 173, 4,4,4-trifluoro-N-(6-fluoro-3-(4-(trifluoromethoxy)phenyl)imidazo[1,2-a]pyridin-2-yl)butanamide], the EC50 lay in the range of 0.5 to 3 µM.

On to `Cc1c(F)ccc(-c2c(NC(=O)CC(C)(C)C)nc3ccc(F)cn23)c1F` [Compound 256, N-(3-(2,4-difluoro-3-methylphenyl)-6-fluoroimidazo[1,2-a]pyridin-2-yl)-3,3-dimethylbutanamide], for which the EC50 fell in the range of 0.5 to 3 µM. On the same count and under the same terms, the value for `CCC(C)CC(=O)Nc1nc2ccc(F)cn2c1-c1ccc(F)cc1` (stereo not drawn) [Compound 147, N-(6-fluoro-3-(4-fluorophenyl)imidazo[1,2-a]pyridin-2-yl)-3-methylpentanamide] was 0.5 to 3 µM; that for `CC(C)(C)CC(=O)Nc1nc2ccc(C(F)(F)F)cn2c1-c1ccc(OC(F)(F)F)cc1` [Compound 178, 3,3-dimethyl-N-(3-(4-(trifluoromethoxy)phenyl)-6-(trifluoromethyl)imidazo[1,2-a]pyridin-2-yl)butanamide] was less than 0.5 µM; that for `O=C(Cc1ccccc1)Nc1nc2ccc(F)cn2c1-c1ccc(F)cc1F` [Compound 115, N-(3-(2,4-difluorophenyl)-6-fluoroimidazo[1,2-a]pyridin-2-yl)-2-phenylacetamide] was 0.5 to 3 µM. Still for that read-out and setting: the value for `O=C(Nc1nc2ccc(F)cn2c1-c1cccc(OC(F)(F)F)c1)C1CCC(F)(F)CC1` [Compound 327, 4,4-difluoro-N-(6-fluoro-3-(3-(trifluoromethoxy)phenyl)imidazo[1,2-a]pyridin-2-yl)cyclohexanecarboxamide] was less than 0.5 µM.

With `CC(C)(C)CC(=O)Nc1nc2ccccn2c1-c1cccc(C(F)(F)F)c1` [Compound 336, 3,3-dimethyl-N-(3-(3-(trifluoromethyl)phenyl)imidazo[1,2-a]pyridin-2-yl)butanamide], the EC50 fell in the range of 0.5 to 3 µM. As to `N#Cc1ccc2nc(NC(=O)Cc3ccccc3)c(-c3ccc(F)cc3)n2c1` [Compound 160, N-(6-cyano-3-(4-fluorophenyl)imidazo[1,2-a]pyridin-2-yl)-2-phenylacetamide], the EC50 is 0.5 to 3 µM.

In the case of `O=C(CCCC(F)(F)F)Nc1nc2ccc(F)cn2c1-c1ccc(OC(F)(F)F)cc1` [Compound 174, 5,5,5-trifluoro-N-(6-fluoro-3-(4-(trifluoromethoxy)phenyl)imidazo[1,2-a]pyridin-2-yl)pentanamide], the EC50 is less than 0.5 µM.

Turning to `O=C(Cc1ccccc1)Nc1nc2ccc(F)cn2c1-c1ccc(OC(F)(F)F)cc1` [Compound 207, N-(6-fluoro-3-(4-(trifluoromethoxy)phenyl)imidazo[1,2-a]pyridin-2-yl)-2-phenylacetamide], the EC50 was less than 0.5 µM. Same read-out and setting: the value for `N#Cc1ccc2nc(NC(=O)Cc3ccc(F)cc3)c(-c3ccc(C(F)(F)F)cc3)n2c1` [Compound 260, N-(6-cyano-3-(4-(trifluoromethyl)phenyl)imidazo[1,2-a]pyridin-2-yl)-2-(4-fluorophenyl)acetamide] was less than 0.5 µM; that for `CC(C)(C)CC(=O)Nc1nc2ncc(F)cn2c1-c1cccc(C(F)(F)F)c1` [Compound 332, N-(6-fluoro-3-(3-(trifluoromethyl)phenyl)imidazo[1,2-a]pyrimidin-2-yl)-3,3-dimethylbutanamide] was 3 to 10 µM; that for `O=C(Cc1c(F)cccc1Cl)Nc1nc2ccc(F)cn2c1-c1ccc(F)cc1` [Compound 141, 2-(2-chloro-6-fluorophenyl)-N-(6-fluoro-3-(4-fluorophenyl)imidazo[1,2-a]pyridin-2-yl)acetamide] was 3 to 10 µM. Take `COc1ccc(-c2c(NC(=O)CC(C)(C)C)nc3ccc(F)cn23)cc1C(F)(F)F` [Compound 200, N-(6-fluoro-3-(4-methoxy-3-(trifluoromethyl)phenyl)imidazo[1,2-a]pyridin-2-yl)-3,3-dimethylbutanamide]: the EC50 is less than 0.5 µM.

Take `CC(C)(C)CC(=O)Nc1nc2ncccn2c1-c1cccc(Cl)c1` [Compound 329, N-(3-(3-chlorophenyl)imidazo[1,2-a]pyrimidin-2-yl)-3,3-dimethylbutanamide]: the EC50 fell in the range of 3 to 10 µM. On to `CC(C)(C)CC(=O)Nc1nc2ccc(C#N)cn2c1-c1ccc(F)cc1` [Compound 159, N-(6-cyano-3-(4-fluorophenyl)imidazo[1,2-a]pyridin-2-yl)-3,3-dimethylbutanamide], for which the EC50 fell in the range of 0.5 to 3 µM. The same measure, in the same setting: the result for `COc1ccc2nc(NC(=O)CC(C)(C)C)c(-c3cccc(OC(F)(F)F)c3)n2n1` [Compound 346, N-(6-methoxy-3-(3-(trifluoromethoxy)phenyl)imidazo[1,2-b]pyridazin-2-yl)-3,3-dimethylbutanamide] reads less than 0.5 µM. For `O=C(Cc1ccc(Cl)cc1)Nc1nc2ccc(F)cn2c1-c1ccc(OC(F)(F)F)cc1` [Compound 238, 2-(4-chlorophenyl)-N-(6-fluoro-3-(4-(trifluoromethoxy)phenyl)imidazo[1,2-a]pyridin-2-yl)acetamide], the EC50 was less than 0.5 µM. As for `O=C(CC(F)(F)F)Nc1nc2ccc(F)cn2c1-c1ccccc1` [Compound 95, 3,3,3-trifluoro-N-(6-fluoro-3-phenylimidazo[1,2-a]pyridin-2-yl)propanamide], the EC50 lay in the range of 3 to 10 µM.

The same test, now with this note: FLIPR assay, SH-SY5Y native cell line; Table 5; read-out: SH-SY5Y EC50.
Take `Cc1c(NC(=O)Cc2ccc(F)cc2)nc2ccc(F)cn12` [Compound 422, N-(6-fluoro-3-methylimidazo[1,2-a]pyridin-2-yl)-2-(4-fluorophenyl)acetamide]: the EC50 lay in the range of 3 to 10 µM.

The same test, now with this note: SH-SY5Y native cell line, FLIPR assay (Table 3); read-out: SH-SY5Y EC50.
On to `CC(C)C(C)C(=O)Nc1nc2ccc(F)cn2c1-c1nc2ccccc2s1` (stereo not drawn) [Compound 373, N-(3-(benzo[d]thiazol-2-yl)-6-fluoroimidazo[1,2-a]pyridin-2-yl)-2,3-dimethylbutanamide], for which the EC50 fell in the range of 3 to 10 µM. The same measure, in the same setting: the result for `O=C(Nc1nc2ccc(F)cn2c1-c1cc(C(F)(F)F)ccn1)C1CC1(F)F` (stereo not drawn) [Compound 412, 2,2-difluoro-N-(6-fluoro-3-(4-(trifluoromethyl)pyridin-2-yl)imidazo[1,2-a]pyridin-2-yl)cyclopropanecarboxamide] reads 3 to 10 µM; that for `Cc1ccnc(-c2c(NC(=O)CC(C)(C)C)nc3ccc(F)cn23)c1` [Compound 365, N-(6-fluoro-3-(4-methylpyridin-2-yl)imidazo[1,2-a]pyridin-2-yl)-3,3-dimethylbutanamide], 0.5 to 3 µM; that for `CC(C)(C)CC(=O)Nc1nc2ccccn2c1-c1cc(C(F)(F)F)ccn1` [Compound 404, 3,3-dimethyl-N-(3-(4-(trifluoromethyl)pyridin-2-yl)imidazo[1,2-a]pyridin-2-yl)butanamide], 0.5 to 3 µM.

The same test, now with this note: SH-SY5Y native cell line, FLIPR assay (Table 6); read-out: SH-SY5Y EC50.
In the case of `CC(C)(CC(=O)Nc1nc2ccc(C(F)(F)F)cn2c1C1CCCCC1)C(F)(F)F` [Compound 441, N-(3-cyclohexyl-6-(trifluoromethyl)imidazo[1,2-a]pyridin-2-yl)-4,4,4-trifluoro-3,3-dimethylbutanamide], the EC50 is less than 0.5 µM.
